Test results from US20250170121A1, “ISOQUINOLINONE COMPOUND, AND PREPARATION METHOD AND USE THEREFOR” (FUDAN UNIVERSITY, priority 2022, published 2025).

What was measured:
[1] = target: T1, Human FABP4 (Homo sapiens, UniProt P15090); test: FABP4 inhibition rate, ANS substrate competition (fluorescence) method; assay type: binding; settings: compound 25 μM; 10 μM 1,8-ANS, 10 μM FABP4
T1 construct: His tag; made in house; host or cells: E. coli BL21 (DE3)
From the text: (§1) Considering that inhibition of FABP3 would cause myocardial function damage and bring potential safety issues, we tested the inhibitory activity of some compounds on FABP3. The activity test is illustrated by the example of the FABP4 activity test system as below.
(§2) Experimental principle and method: Once the free non-covalent fluorescent probe ANS binds to FABP4, the ANS fluorescence intensity will increase and its spectrum will be blue shifted. In this experiment, the inhibitory effect of the compound on FABP4 was evaluated by measuring the change in the ANS fluorescence signal value. For the FABP4 inhibitory activity test, the ANS substrate competition method was used, and we used the method of Kane and Bernlohr (E. Marr, M. Tardie, M. Carty, T. Brown Phillips, I. K. Wang, W. Soeller, X. Qiu, G. Karam, Expression, purification, crystallization and structure of human adipocyte lipid-binding protein (aP2). Acta Crystallogr., Sect. F: Struct. Biol. Cryst. Commun. 62 (2006) 1058-1060.). Human FABP4 with a His tag was expressed in the BL21 (DE3) strain and then purified using a Ni column with a His tag to generate the protein. In the detection system, the concentration of 1,8-ANS substrate was 10 μM, the final concentration of FABP4 was 10 μM, and then the compound prepared by the present invention was added at the required concentration for incubation for 3 minutes, and finally the fluorescence signal was detected at an excitation wavelength (EX) of 370 nm/emission wavelength (EM) of 470 nm. The inhibition rate (%) of the test sample on FABP4 was calculated according to the fluorescence absorption value of the system. The inhibition rate (%) was calculated according to the following equation: […]
(§3) FX represents the fluorescence value (fluorescence, F) of the system measured in the presence of compound x;
(§4) Fbackground represents the fluorescence value of the fluorescent substrate ANS;
(§5) F0% represents the fluorescence value of the system when the inhibition rate is 0%, that is, when no compound was added.

[2] = target: FABP5 (Homo sapiens, UniProt Q01469); test: FABP5 inhibition rate, ANS substrate competition method (illustrated by the FABP4 system); assay type: binding; settings: compound 25 μM
Sequence of FABP5 (Q01469 whole entry): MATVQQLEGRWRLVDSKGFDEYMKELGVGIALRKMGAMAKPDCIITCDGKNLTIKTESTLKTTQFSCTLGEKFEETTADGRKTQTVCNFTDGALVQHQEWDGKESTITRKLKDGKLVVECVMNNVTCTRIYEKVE

[3] = target: FABP3 (Homo sapiens, UniProt P05413); test: FABP3 inhibition rate, ANS substrate competition method (illustrated by the FABP4 system); assay type: binding; settings: compound 25 μM
Sequence of FABP3 (P05413 whole entry): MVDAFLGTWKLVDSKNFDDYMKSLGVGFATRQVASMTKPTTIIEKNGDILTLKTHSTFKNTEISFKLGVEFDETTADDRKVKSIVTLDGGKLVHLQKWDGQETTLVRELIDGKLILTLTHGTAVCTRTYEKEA
From the text: as §1, §2, §3, §4, §5

[4] = system: MCP-1 secretion in THP-1 cells; test: MCP-1 secretion in LPS-stimulated THP-1 monocyte-derived macrophages (ELISA); assay type: cell-based; settings: 25 μM, 10 μM and 5 μM; 18 h incubation, 100 ng/ml LPS 6 h; FIG. 2
From the text: (§6) In FIG. 2A to FIG. 2C, the vertical axis represents the amount (ng) of MCP-1 contained in each mg of cell protein: in FIG. 2D, the vertical axis represents the relative concentration of MCP-1 (ng/mg cellular protein % LPS). Wherein, Control represents blank control treatment, LPS represents lipopolysaccharide treatment, BMS309403 represents inhibitor positive control treatment, RO6806051 (RO) represents lead compound treatment, and Y2, Y3, Y15, Y16 and Y18 represent treatments with compounds Y2, Y3, Y15, Y16 and Y18 prepared in the present invention, respectively.
(§7) Effects of the compounds on monocyte chemoattractant factor-1 (MCP-1) and interleukin-6 (IL-6) in THP-1 monocyte-derived macrophage.
(§8) First, monocytic cell line THP-1 in logarithmic growth phase was plated on a 96-well plate at a cell density of 5*10^5/ml; then 100 nM phorbol myristate ester (PMA) was added to induce the cells for 24 hours to differentiate into macrophages; then the cells were washed once or twice with phosphate buffered saline (PBS), and different concentrations of compounds (5, 10, 25 μM) were added for incubation for 18 hours; finally, after 6 hours of stimulation with 100 ng/ml lipopolysaccharide (LPS), the supernatant was collected and diluted to a certain multiple and the contents of MCP-1 and IL-6 were detected using enzyme-linked immunosorbent assay (ELISA), and cell protein was collected and the protein concentration was measured by BCA method for calibration.

[5] = system: IL-6 secretion in THP-1 cells; test: IL-6 secretion in LPS-stimulated THP-1 monocyte-derived macrophages (ELISA); assay type: cell-based; settings: FIG. 3
From the text: as §6, with “3,” for “2A to FIG. 2C,”, “protein.” for “protein: in FIG. 2D, the vertical axis represents the relative concentration of MCP-1 (ng/mg cellular protein % LPS).”, “Control (Con)” for “Control”
as §7, §8

T1 sequence (P15090 whole entry): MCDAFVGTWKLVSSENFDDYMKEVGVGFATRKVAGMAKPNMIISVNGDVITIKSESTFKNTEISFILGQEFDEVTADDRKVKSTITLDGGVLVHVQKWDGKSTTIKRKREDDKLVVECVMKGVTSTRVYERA

| Structure (SMILES) | inhibition at 25 µM [1] [%] | inhibition at 25 µM [2] [%] | inhibition at 25 µM [3] [%] | secretion of inflammatory factor MCP-1 in THP-1 mononuclear macrophages [4] | secretion of inflammatory factor IL-6 in THP-1 mononuclear macrophages ([5]; 25 μM) | IL-6 secretion, tendency (no concentration stated) [5] |
| --- | --- | --- | --- | --- | --- | --- |
| O=C(O)c1c(-c2ccccc2)c2cc(Cl)ccc2c(=O)n1-c1ccc(Cl)cc1 [Compound Y8, 6-Chloro-2-(4-chlorophenyl)-1-oxo-4-phenyl-1,2-dihydroisoquinoline-3-carboxylic Acid] | 35 | 1 |  |  |  |  |
| O=C(O)c1c(-c2ccccc2)c2cc(Cl)ccc2c(=O)n1C1CCOCC1 [Compound Y4, 6-Chloro-1-oxo-4-phenyl-2-(tetrahydro-2H-pyran-4-yl)-1,2-dihydroisoquinoline-3-carboxylic Acid] | 71 | 50 | 14 |  |  |  |
| O=C(O)c1c(-c2ccccc2)c2cc(Cl)ccc2c(=O)n1C1CC1 [Compound Y5, 6-Chloro-2-cyclopropyl-1-oxo-4-phenyl-1,2-dihydroisoquinoline-3-carboxylic Acid] | 88 | 43 | 82 |  |  |  |
| O=C(O)c1c(-c2ccccc2)c2ccccc2c(=O)n1C1CCCC1 [Compound Y12, 2-Cyclopentyl-1-oxo-4-phenyl-1,2-dihydroisoquinoline-3-carboxylic Acid] | 58 | 25 |  |  |  |  |
| O=C(O)c1c(-c2ccc(C(F)(F)F)cc2)c2cc(Cl)ccc2c(=O)n1C1CCCC1 [Compound Y19, 6-Chloro-2-cyclopentyl-1-oxo-4-(4-(trifluoromethyl)phenyl)-1,2-dihydroisoquinoline-3-carboxylic Acid] | 14 | 22 | 3 |  |  |  |
| O=C(O)c1c(-c2ccccc2)c2cc(Cl)c(Cl)cc2c(=O)n1C1CCCC1 [Compound Y11, 6,7-Dichloro-2-cyclopentyl-1-oxo-4-phenyl-1,2-dihydroisoquinoline-3-carboxylic Acid] | 77 | 41 | 48 |  |  |  |
| O=C(O)c1c(-c2ccc3c(c2)CCO3)c2cc(Cl)ccc2c(=O)n1C1CCCC1 [Compound Y20, 6-Chloro-2-cyclopentyl-4-(2,3-dihydrobenzofuran-5-yl)-1-oxo-1,2-dihydroisoquinoline-3-carboxylic Acid] | 32 | 25 |  |  |  |  |
| Cc1ccc2c(=O)n(C3CCCC3)c(C(=O)O)c(-c3ccccc3)c2c1 [Compound Y14, 2-Cyclopentyl-6-methyl-1-oxo-4-phenyl-1,2-dihydroisoquinoline-3-carboxylic Acid] | 90 | 55 | 26 |  |  |  |
| O=C(O)c1c(-c2ccccc2)c2cc(Br)ccc2c(=O)n1C1CCCC1 [Compound Y10, 6-Bromo-2-cyclopentyl-1-oxo-4-phenyl-1,2-dihydroisoquinoline-3-carboxylic Acid] | 95 | 58 | 57 |  |  |  |
| O=C(O)c1c(-c2ccccc2)c2cc(F)ccc2c(=O)n1C1CCCC1 [Compound Y13, 2-Cyclopentyl-6-fluoro-1-oxo-4-phenyl-1,2-dihydroisoquinoline-3-carboxylic Acid] | 89 | 43 | 11 |  |  |  |
| O=C(O)c1c(-c2ccccc2)c2cc(Cl)ccc2c(=O)n1N1CCCCC1 [Compound Y9, 6-Chloro-1-oxo-4-phenyl-2-(piperidin-1-yl)-1,2-dihydroisoquinoline-3-carboxylic Acid] | 95 | 72 | 59 |  |  |  |
| O=C(O)c1c(-c2ccccc2)c2cc(Cl)ccc2c(=O)n1C1CCC1 [Compound Y6, 6-Chloro-2-cyclobutyl-1-oxo-4-phenyl-1,2-dihydroisoquinoline-3-carboxylic Acid] | 94 | 60 | 81 |  |  |  |

Second part, led by results:

| inhibition at 25 µM [1] [%] | inhibition at 25 µM [2] [%] | inhibition at 25 µM [3] [%] | Structure (SMILES) | secretion of inflammatory factor MCP-1 in THP-1 mononuclear macrophages [4] | secretion of inflammatory factor IL-6 in THP-1 mononuclear macrophages ([5]; 25 μM) | IL-6 secretion, tendency (no concentration stated) [5] |
| --- | --- | --- | --- | --- | --- | --- |
| 91 | 46 | 16 | O=C(O)c1c(-c2ccc(F)c(Cl)c2)c2cc(Cl)ccc2c(=O)n1C1CCCC1 [Compound Y18, 6-Chloro-4-(3-chloro-4-fluorophenyl)-2-cyclopentyl-1-oxo-1,2-dihydroisoquinoline-3-carboxylic Acid] | could reduce the secretion of inflammatory factor MCP-1 | could reduce the secretion of inflammatory factor IL-6 | tendency to reduce IL-6 secretion but with no statistical difference |
| 70 | 50 | 29 | O=C(O)c1c(-c2ccccc2)c2cc(Cl)ccc2c(=O)n1C1CCCCC1 [Compound Y1, 6-Chloro-2-cyclohexyl-1-oxo-4-phenyl-1,2-dihydroisoquinoline-3-carboxylic Acid] |  |  |  |
| 76 | 31 | 9 | O=C(O)c1c(-c2cccnc2)c2cc(Cl)ccc2c(=O)n1C1CCCC1 [Compound Y21, 6-Chloro-2-cyclopentyl-1-oxo-4-(pyridin-3-yl)-1,2-dihydroisoquinoline-3-carboxylic Acid] |  |  |  |
| 92 | 52 | 28 | O=C(O)c1c(-c2ccc(O)cc2)c2cc(Cl)ccc2c(=O)n1C1CCCC1 [Compound Y16, 6-Chloro-2-cyclopentyl-4-(4-hydroxyphenyl)-1-oxo-1,2-dihydroisoquinoline-3-carboxylic Acid] | could reduce the secretion of inflammatory factor MCP-1 |  |  |
| 78 | 57 | 18 | O=C(O)c1c(-c2ccccc2)c2cc(Cl)ccc2c(=O)n1C1CCCCCC1 [Compound Y7, 6-Chloro-2-cycloheptyl-1-oxo-4-phenyl-1,2-dihydroisoquinoline-3-carboxylic Acid] |  |  |  |
| 36 | 36 | 1 | Cc1nn(C)cc1-c1c(C(=O)O)n(C2CCCC2)c(=O)c2ccc(Cl)cc12 [Compound Y22, 6-Chloro-2-cyclopentyl-4-(1,3-dimethyl-1H-pyrazol-4-yl)-1-oxo-1,2-dihydroisoquinoline-3-carboxylic Acid] |  |  |  |
| 91 | 52 | 27 | O=C(O)c1c(-c2ccc(F)cc2)c2cc(Cl)ccc2c(=O)n1C1CCCC1 [Compound Y15, 6-Chloro-2-cyclopentyl-4-(4-fluorophenyl)-1-oxo-1,2-dihydroisoquinoline-3-carboxylic Acid] | could reduce the secretion of inflammatory factor MCP-1 |  | tendency to reduce IL-6 secretion but with no statistical difference |
| 1 | 14 |  | O=C(O)c1c(-c2ccc(CO)cc2)c2cc(Cl)ccc2c(=O)n1C1CCCC1 [Compound Y17, 6-Chloro-2-cyclopentyl-4-(4-(hydroxymethyl)phenyl)-1-oxo-1,2-dihydroisoquinoline-3-carboxylic Acid] |  |  |  |
